From patent US12104192B2, “Method of preparing primary amines from amino acids using enzymatic conversion” (KOREA ADVANCED INSTITUTE OF SCIENCE AND TECHNOLOGY, priority 2020, dated 2024)

The molecules below were run on valine decarboxylase (assay: Enzymatic activity assay of purified valine decarboxylase with amino acid substrates, HPLC detection of primary amine). Conditions: 1 mM amino acid, 0.1 mM PLP, 150 μg purified his-tagged enzyme, 50 mM potassium phosphate buffer pH 7.5, 37° C., 2 hours.
Type: biochemical, Streptomyces viridifaciens
Experimental: An enzymatic activity assay was performed using a 50 mM potassium phosphate buffer (pH 7.5), and the substrate and enzyme used for the assay were added in the following amounts to the enzyme reaction solution.
Amino acids used as substrates were used at a concentration of 1 mM, and the amino acids used herein were L-alanine, L-2-aminobutyrate, 2-aminoisobutyrate, L-norvaline, L-valine, L-isovaline, L-norleucine, L-leucine, L-isoleucine, 1-aminocyclopentanecarboxylic acid, 1-aminocyclohexanecarboxylic acid, and L-2-phenylglycine. 0.1 mM pyridoxal phosphate (PLP) and 150 μg of the purified valine decarboxylase were added, followed by conducting reaction at 37° C. for 2 hours, and the sample after the reaction was analyzed by HPLC to identify primary amine.
Primary amine production was analyzed using HPLC (1100 Series HPLC; Agilent Technologies, Santa Clara, CA). The primary amine derivatization for analysis was performed in an automatic manner before analysis using an o-phthaldialdehyde (OPA; Sigma, St. Louis, MO) reagent. The OPA reagent for derivatization was prepared by dissolving 0.20 g of OPA reagent in 9.0 mL of methanol and then adding 1.0 mL of 0.40 M (pH 9.0) borate buffer and 160 μL of 2-mercaptoethanol thereto. For derivatization, 1 μL of the sample was mixed with 5 μL of 0.40 M (pH 9.0) borate buffer. Then, 1 μL of the OPA reagent for derivatization prepared above was added thereto, followed by HPLC analysis. Analysis was performed at 25° C. using an Eclipse plus C18 column (4.6×150 mm; Agilent Technologies). Solvent A for analysis was prepared by mixing 1.4 g/L of Na2HPO4 and 3.8 g/L of Na2B4O7·10H2O with 8 mg/L of NaN3, and adjusting the final pH of the resulting mixture to 7.2 using HCl. Solvent B was prepared by mixing 45% acetonitrile and 45% methanol with 10% H2O based on volume %. The solvent was fed at a rate of 2 mL/min. […] The derivatized secondary amines could be analyzed by detecting light with a wavelength of 230 nm using a variable wavelength detector (G1314A; Agilent Technologies).

Conversion of the amino acid substrate to the corresponding primary amine by valine decarboxylase, successfully converted:
NC1(C(=O)O)CCCCC1 [1-aminocyclohexanecarboxylic acid]
NC1(C(=O)O)CCCC1 [1-aminocyclopentanecarboxylic acid]
CC(C)(N)C(=O)O [2-aminobutyrate, 2-aminoisobutyrate]
N[C@H](C(=O)O)c1ccccc1 [L-2-phenylglycine]
C[C@H](N)C(=O)O [L-alanine]
CC[C@H](C)[C@H](N)C(=O)O [L-isoleucine]
CC[C@](C)(N)C(=O)O [L-isovaline]
CC(C)C[C@H](N)C(=O)O [L-leucine]
CCCC[C@H](N)C(=O)O [L-norleucine]
CCC[C@H](N)C(=O)O [L-norvaline]
CC(C)[C@H](N)C(=O)O [L-valine]
L-2-aminobutyrate
